Measured values taken from the NIST ThermoML archive (doi:10.1016/j.jct.2016.04.001).
± gives the expanded uncertainty stated by the source.

How the values were obtained:
[1] = 296 K; 101.33 kPa; Crystal; X-ray diffraction
[2] = molar heat capacity at constant pressure; details: 101.33 kPa, Crystal, Small sample (50 mg) DSC

CCCCC(O)(Cn1cncn1)c1ccc(Cl)cc1Cl (configuration not stated)
mass density [1]: 1331 ± 7 kg/m3
molar heat capacity at constant pressure ([2]; 283.15 K): 342.68 ± 8.7 J/K/mol
molar heat capacity at constant pressure ([2]; 288.15 K): 351.02 ± 8.9 J/K/mol
molar heat capacity at constant pressure ([2]; 293.15 K): 358.22 ± 9.1 J/K/mol
molar heat capacity at constant pressure ([2]; 298.15 K): 364.66 ± 9.2 J/K/mol
molar heat capacity at constant pressure ([2]; 303.15 K): 370.65 ± 9.4 J/K/mol
molar heat capacity at constant pressure ([2]; 308.15 K): 376.44 ± 9.5 J/K/mol
molar heat capacity at constant pressure ([2]; 313.15 K): 382.23 ± 9.7 J/K/mol
molar heat capacity at constant pressure ([2]; 318.15 K): 388.15 ± 9.8 J/K/mol
molar heat capacity at constant pressure ([2]; 323.15 K): 394.25 ± 10 J/K/mol
molar heat capacity at constant pressure ([2]; 328.15 K): 400.53 ± 10 J/K/mol
molar heat capacity at constant pressure ([2]; 333.15 K): 406.94 ± 10 J/K/mol
molar heat capacity at constant pressure ([2]; 338.15 K): 413.34 ± 10 J/K/mol
molar heat capacity at constant pressure ([2]; 343.15 K): 419.55 ± 11 J/K/mol
molar heat capacity at constant pressure ([2]; 348.15 K): 425.32 ± 11 J/K/mol
molar heat capacity at constant pressure ([2]; 353.15 K): 430.33 ± 11 J/K/mol

CC(C)(C)C(O)/C(=C\c1ccc(Cl)cc1Cl)n1cncn1 (configuration not stated) [Diniconazole]
mass density [1]: 1323 ± 7 kg/m3
molar heat capacity at constant pressure ([2]; 283.15 K): 360.4 ± 9.1 J/K/mol
molar heat capacity at constant pressure ([2]; 288.15 K): 367.41 ± 9.2 J/K/mol
molar heat capacity at constant pressure ([2]; 293.15 K): 374.58 ± 9.4 J/K/mol
molar heat capacity at constant pressure ([2]; 298.15 K): 381.72 ± 9.6 J/K/mol
molar heat capacity at constant pressure ([2]; 303.15 K): 388.72 ± 9.8 J/K/mol
molar heat capacity at constant pressure ([2]; 308.15 K): 395.47 ± 9.9 J/K/mol
molar heat capacity at constant pressure ([2]; 313.15 K): 401.89 ± 10 J/K/mol
molar heat capacity at constant pressure ([2]; 318.15 K): 407.93 ± 10 J/K/mol
molar heat capacity at constant pressure ([2]; 323.15 K): 413.6 ± 10 J/K/mol
molar heat capacity at constant pressure ([2]; 328.15 K): 418.9 ± 11 J/K/mol
molar heat capacity at constant pressure ([2]; 333.15 K): 423.89 ± 11 J/K/mol
molar heat capacity at constant pressure ([2]; 338.15 K): 428.65 ± 11 J/K/mol
molar heat capacity at constant pressure ([2]; 343.15 K): 433.27 ± 11 J/K/mol
molar heat capacity at constant pressure ([2]; 348.15 K): 437.91 ± 11 J/K/mol
molar heat capacity at constant pressure ([2]; 353.15 K): 442.73 ± 11 J/K/mol
